Results on 29 compounds are retold here after US7795261B2, “Substituted 1-piperidin-4-yl-4-pyrrolidin-3-yl-piperazine derivatives and their use as neurokinin antagonists” (Janssen Pharmaceutica NV, priority 2002, dated 2010).

What all share (type): cell-based
The target of one experiment is T1, NK2 (Homo sapiens, UniProt P21452).
T1 sequence (P21452 1-398): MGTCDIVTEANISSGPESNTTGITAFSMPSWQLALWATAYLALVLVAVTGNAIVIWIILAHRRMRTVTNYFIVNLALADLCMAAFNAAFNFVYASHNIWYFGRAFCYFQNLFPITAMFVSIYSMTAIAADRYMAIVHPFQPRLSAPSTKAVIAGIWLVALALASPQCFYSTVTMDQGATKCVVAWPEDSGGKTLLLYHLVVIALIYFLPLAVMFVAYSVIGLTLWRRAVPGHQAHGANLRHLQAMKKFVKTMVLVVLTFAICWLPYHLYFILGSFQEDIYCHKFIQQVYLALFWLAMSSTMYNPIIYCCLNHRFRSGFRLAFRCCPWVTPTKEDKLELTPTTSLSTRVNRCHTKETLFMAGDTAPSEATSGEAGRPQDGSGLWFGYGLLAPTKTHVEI
Description: Signal transduction (ST), intracellular Ca++ (FLIPR), NK2. The following applies: read-out: pIC50 NK2 (converted).

The next experiment has as its target T2, NK3 (Homo sapiens, UniProt P29371).
T2 sequence (P29371 1-465): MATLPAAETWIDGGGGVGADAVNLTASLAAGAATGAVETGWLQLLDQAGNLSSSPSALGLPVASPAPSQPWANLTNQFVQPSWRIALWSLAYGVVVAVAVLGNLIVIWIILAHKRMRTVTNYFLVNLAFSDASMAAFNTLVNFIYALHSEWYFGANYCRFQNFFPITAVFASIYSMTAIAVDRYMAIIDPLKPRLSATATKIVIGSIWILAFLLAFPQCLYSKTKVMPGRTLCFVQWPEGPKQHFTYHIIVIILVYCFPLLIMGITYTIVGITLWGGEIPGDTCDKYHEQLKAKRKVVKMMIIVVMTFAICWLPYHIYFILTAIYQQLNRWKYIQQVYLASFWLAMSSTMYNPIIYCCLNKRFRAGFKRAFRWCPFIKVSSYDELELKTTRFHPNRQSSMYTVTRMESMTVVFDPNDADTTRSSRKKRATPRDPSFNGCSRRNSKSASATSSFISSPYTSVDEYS
Description: Signal transduction (ST), intracellular Ca++ (FLIPR), NK3. The following applies: read-out: pIC50 NK3 (converted).

The next experiment deals with NK1 (Homo sapiens, UniProt P25103). Description: Signal transduction (ST), intracellular Ca++ (FLIPR), NK1 antagonistic activity. The following applies: read-out: pIC50 NK1 (converted). The method in brief:
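Antagonist IC50 was fitted by non-linear regression of peak intracellular Ca++ signals measured on FLIPR after agonist challenge. Beforehand, Fluo3-loaded confluent cells received antagonists over a concentration range for 20 min at room temperature in Ca++ Krebs buffer, pH 7.4.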

Chain of NK1 (P25103 whole entry): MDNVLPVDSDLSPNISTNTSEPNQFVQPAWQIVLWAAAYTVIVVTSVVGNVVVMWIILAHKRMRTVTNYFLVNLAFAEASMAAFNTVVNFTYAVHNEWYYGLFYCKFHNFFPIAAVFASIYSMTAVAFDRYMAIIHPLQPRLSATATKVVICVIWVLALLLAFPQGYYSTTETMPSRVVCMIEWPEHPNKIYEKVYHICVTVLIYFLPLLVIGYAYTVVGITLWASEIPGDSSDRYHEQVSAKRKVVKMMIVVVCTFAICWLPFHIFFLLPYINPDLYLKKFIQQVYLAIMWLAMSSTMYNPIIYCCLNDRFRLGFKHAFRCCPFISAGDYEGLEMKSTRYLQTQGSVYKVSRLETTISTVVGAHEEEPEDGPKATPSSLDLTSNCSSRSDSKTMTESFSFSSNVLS

Take `Cc1ccccc1C(=O)N1CCC(N2CCN([C@H]3CCN(C(=O)c4cc(C(F)(F)F)cc(C(F)(F)F)c4)[C@H](Cc4ccccc4)C3)CC2)C1` (stereo partly drawn) [Compound 13]: the IC50 on NK2 was 3980 nM; on NK3, 200 nM; on NK1, 25.1 nM.
Consider `O=C(c1ccsc1)N1CCC(N2CCN([C@H]3CCN(C(=O)c4cc(C(F)(F)F)cc(C(F)(F)F)c4)[C@H](Cc4ccccc4)C3)CC2)C1` (stereo partly drawn) [Compound 41], for which the IC50 on NK2 is 1580 nM; at NK3, 200 nM; on NK1, 15.8 nM.
For the compound `O=C(c1ccoc1)N1CCC(N2CCN(C3CCN(C(=O)c4cc(C(F)(F)F)cc(C(F)(F)F)c4)C(Cc4ccccc4)C3)CC2)C1` (single isomer, unassigned) [Compound 32], the IC50 is 5010 nM at NK2, 200 nM on NK3 and 12.6 nM on NK1.
As for `O=C(c1ccoc1)N1CC[C@@H](N2CCN([C@H]3CCN(C(=O)c4cc(C(F)(F)F)cc(C(F)(F)F)c4)[C@H](Cc4ccc(Cl)c(Cl)c4)C3)CC2)C1` [Compound 288], the IC50 was 1580 nM at NK2, 794 nM at NK3 and 7.94 nM on NK1.
Consider `O=C(C1CCOC1)N1CCC(N2CCN(C3CCN(C(=O)c4cc(C(F)(F)F)cc(C(F)(F)F)c4)C(Cc4ccccc4)C3)CC2)C1` (single isomer, unassigned) [Compound 216], for which the IC50 is 5010 nM on NK2, 1580 nM on NK3 and 10 nM at NK1.
On the same counts, the results for `O=C(c1cc(CCO)cs1)N1CCC(N2CCN([C@H]3CCN(C(=O)c4cc(C(F)(F)F)cc(C(F)(F)F)c4)[C@H](Cc4ccccc4)C3)CC2)C1` (stereo partly drawn) [Compound 363] are 3980 nM, 1580 nM and 12.6 nM.
With `O=C(OCc1ccccc1C(=O)N1CCC(N2CCN([C@H]3CCN(C(=O)c4cc(C(F)(F)F)cc(C(F)(F)F)c4)[C@H](Cc4ccccc4)C3)CC2)C1)c1ccccc1` (stereo partly drawn) [Compound 346], the IC50 was 1580 nM at NK2, 1260 nM on NK3 and 63.1 nM at NK1.
With `Cc1ccc(C(=O)N2CCC(N3CCN([C@H]4CCN(C(=O)c5cc(C(F)(F)F)cc(C(F)(F)F)c5)[C@H](Cc5ccccc5)C4)CC3)C2)s1` (stereo partly drawn) [Compound 43], the IC50 was 7940 nM at NK2, 631 nM on NK3 and 25.1 nM at NK1.
On the same counts, the results for `O=C(c1cc(C(F)(F)F)cc(C(F)(F)F)c1)N1CCC(N2CCN(C3CCN(C(CO)c4ccsc4)C3)CC2)CC1Cc1ccccc1` (stereo not drawn) [Compound 349] are 2510 nM, 6310 nM and 31.6 nM.
For the compound `O=C(c1cc(C(F)(F)F)cc(C(F)(F)F)c1)N1CC[C@H](N2CCN([C@@H]3CCN(S(=O)(=O)c4cccs4)C3)CC2)C[C@H]1Cc1ccc(Cl)c(Cl)c1` [Compound 268], the IC50 on NK2 is 251 nM; on NK3, 1000 nM; at NK1, 20 nM.
Taken in the same sequence, the figures for `N#Cc1ccc(NC(=O)N2CCC(N3CCN([C@H]4CCN(C(=O)c5cc(C(F)(F)F)cc(C(F)(F)F)c5)[C@H](Cc5ccccc5)C4)CC3)C2)cc1` (stereo partly drawn) [Compound 283] were 3980 nM, 2510 nM and 25.1 nM.
On the same counts, the results for `O=C(c1ccsc1)N1CCC(N2CCN(C3CCN(C(=O)c4cc(C(F)(F)F)cc(C(F)(F)F)c4)C(Cc4ccc(F)cc4)C3)CC2)C1` (stereo not drawn) [Compound 278] are 3980 nM, 2000 nM and 15.8 nM.
For the compound `O=C(c1ccsc1)N1CCC(N2CCN(C3CCN(C(=O)c4cc(C(F)(F)F)cc(C(F)(F)F)c4)C(Cc4cc(F)cc(F)c4)C3)CC2)C1` (stereo not drawn) [Compound 337], the IC50 at NK2 was 3160 nM; at NK3 it was 1260 nM; on NK1, 39.8 nM.
Take `O=C(c1ccco1)N1CCC(N2CCN([C@H]3CCN(C(=O)c4cc(C(F)(F)F)cc(C(F)(F)F)c4)[C@H](Cc4ccccc4)C3)CC2)C1` (stereo partly drawn) [Compound 35]: the IC50 is 3980 nM on NK2, 200 nM on NK3 and 25.1 nM on NK1.
For the compound `N#CN=C(N1CCOCC1)N1CCC(N2CCN([C@H]3CCN(C(=O)c4cc(C(F)(F)F)cc(C(F)(F)F)c4)[C@H](Cc4ccccc4)C3)CC2)C1` (stereo partly drawn) [Compound 371], the IC50 is 7940 nM at NK2, 5010 nM on NK3 and 15.8 nM on NK1.
On to `O=C(c1cc(C(F)(F)F)cc(C(F)(F)F)c1)N1CC[C@H](N2CCN([C@H]3CCN(C(=O)n4ccnc4)C3)CC2)C[C@H]1Cc1ccc(Cl)c(Cl)c1` [Compound 324], for which the IC50 was 200 nM at NK2, 398 nM on NK3 and 6.31 nM at NK1.
As to `O=C(C1CC1)N1CCC(N2CCN(C3CCN(C(=O)c4cc(C(F)(F)F)cc(C(F)(F)F)c4)C(Cc4cc(F)cc(F)c4)C3)CC2)C1` (stereo not drawn) [Compound 340], the IC50 is 6310 nM at NK2, 6310 nM at NK3 and 50.1 nM at NK1.
`O=C(c1c(Cl)cccc1Cl)N1CCC(N2CCN([C@H]3CCN(C(=O)c4cc(C(F)(F)F)cc(C(F)(F)F)c4)[C@H](Cc4ccccc4)C3)CC2)C1` (stereo partly drawn) [Compound 169]: the IC50 is 2510 nM at NK2, 251 nM at NK3 and 12.6 nM at NK1.
For the compound `O=C(c1cn[nH]c1)N1CCC(N2CCN([C@H]3CCN(C(=O)c4cc(C(F)(F)F)cc(C(F)(F)F)c4)[C@H](Cc4ccccc4)C3)CC2)C1` (stereo partly drawn) [Compound 25], the IC50 at NK2 was 5010 nM; on NK3, 5010 nM; at NK1, 20 nM.
Turning to `O=C(c1sccc1COCc1ccccc1)N1CCC(N2CCN([C@H]3CCN(C(=O)c4cc(C(F)(F)F)cc(C(F)(F)F)c4)[C@H](Cc4ccccc4)C3)CC2)C1` (stereo partly drawn) [Compound 353], the IC50 was 3160 nM on NK2, 794 nM on NK3 and 25.1 nM at NK1.
On the same counts, the results for `O=C(c1ccsc1)N1CC[C@H](N2CCN([C@H]3CCN(C(=O)c4cc(C(F)(F)F)cc(C(F)(F)F)c4)[C@H](Cc4ccc(Cl)c(Cl)c4)C3)CC2)C1` [Compound 325] are 398 nM, 631 nM and 15.8 nM.
Turning to `O=C(c1cccs1)N1CC[C@@H](N2CCN([C@H]3CCN(C(=O)c4cc(C(F)(F)F)cc(C(F)(F)F)c4)[C@H](Cc4ccc(Cl)c(Cl)c4)C3)CC2)C1` [Compound 264], the IC50 on NK2 is 1580 nM; on NK3, 200 nM; on NK1, 12.6 nM.
Consider `COc1ccc(OC)c(S(=O)(=O)N2CCC(N3CCN([C@H]4CCN(C(=O)c5cc(C(F)(F)F)cc(C(F)(F)F)c5)[C@H](Cc5ccccc5)C4)CC3)C2)c1` (stereo partly drawn) [Compound 411], for which the IC50 on NK2 is 2510 nM; at NK3 it was 1000 nM; on NK1, 20 nM.
On to `O=C(c1cc(C(F)(F)F)cc(C(F)(F)F)c1)N1CC[C@H](N2CCN(C3CCN(c4cnccn4)C3)CC2)C[C@H]1Cc1ccccc1` (stereo partly drawn) [Compound 4], for which the IC50 on NK2 is 6310 nM; on NK3 it was 158 nM; at NK1 it was 25.1 nM.
Turning to `CC(C)NC(=O)N1CCC(N2CCN([C@H]3CCN(C(=O)c4cc(C(F)(F)F)cc(C(F)(F)F)c4)[C@H](Cc4ccccc4)C3)CC2)C1` (stereo partly drawn) [Compound 293], the IC50 at NK2 is 6310 nM; on NK3, 5010 nM; at NK1 it was 15.8 nM.
As for `O=C(c1cnccn1)N1CC[C@@H](N2CCN([C@H]3CCN(C(=O)c4cc(C(F)(F)F)cc(C(F)(F)F)c4)[C@H](Cc4ccc(Cl)c(Cl)c4)C3)CC2)C1` [Compound 286], the IC50 at NK2 is 1000 nM; at NK3, 398 nM; at NK1, 6.31 nM.
Take `O=C(c1ccco1)N1CC[C@@H](N2CCN([C@H]3CCN(C(=O)c4cc(C(F)(F)F)cc(C(F)(F)F)c4)[C@H](Cc4ccc(Cl)c(Cl)c4)C3)CC2)C1` [Compound 267]: the IC50 is 631 nM at NK2, 200 nM at NK3 and 7.94 nM at NK1.
`CC(C)(C)C(=O)N1CCC(N2CCN(C3CCN(C(=O)c4cc(C(F)(F)F)cc(C(F)(F)F)c4)C(Cc4ccc(F)c(F)c4)C3)CC2)C1` (single isomer, unassigned) [Compound 364]: the IC50 on NK2 is 2000 nM; on NK3 it was 631 nM; on NK1 it was 7.94 nM.
`CC(C)(C)C(=O)N1CC[C@@H](N2CCN([C@H]3CCN(C(=O)c4cc(C(F)(F)F)cc(C(F)(F)F)c4)[C@H](Cc4ccc(Cl)c(Cl)c4)C3)CC2)C1` [Compound 289]: the results for the IC50 at NK2, at NK3 and at NK1 were 2000 nM, 794 nM and 7.94 nM, respectively.
